Source: patent US9776995B2, “Bicyclic sulfonamide compounds as sodium channel inhibitors” (AMGEN INC., priority 2013, dated 2017)
Like-named read-outs stand apart in the source and are kept apart here.

Columns and labels:
[1] = molecular target: Nav 1.5 (Homo sapiens (Human), UniProt Q14524); assay: in-vitro Nav 1.5 PX data; conditions: read-out: Nav 1.5 PX IC50
[2] = molecular target: T1, Nav 1.7 (Homo sapiens (Human), UniProt Q15858); assay: in-vitro Nav 1.7 PX data; format: cell-based
[3] = molecular target: T1, Nav 1.7; assay: Nav 1.7 in vitro PX assay (PatchXpress whole cell voltage clamp); format: cell-based;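 note: holding potential set for 20 to 50% inactivation, sodium current evoked by a 20 ms step to −10 mV, peak current inhibition read after compound exposure, 3–5 cells per concentration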
[4] = in-vitro Nav 1.7 PX (PatchXpress)
[5] = HEK 293 cells stably transfected with human Nav1.7, PatchXpress, partially inactivated state

T1 sequence (Q15858 whole entry): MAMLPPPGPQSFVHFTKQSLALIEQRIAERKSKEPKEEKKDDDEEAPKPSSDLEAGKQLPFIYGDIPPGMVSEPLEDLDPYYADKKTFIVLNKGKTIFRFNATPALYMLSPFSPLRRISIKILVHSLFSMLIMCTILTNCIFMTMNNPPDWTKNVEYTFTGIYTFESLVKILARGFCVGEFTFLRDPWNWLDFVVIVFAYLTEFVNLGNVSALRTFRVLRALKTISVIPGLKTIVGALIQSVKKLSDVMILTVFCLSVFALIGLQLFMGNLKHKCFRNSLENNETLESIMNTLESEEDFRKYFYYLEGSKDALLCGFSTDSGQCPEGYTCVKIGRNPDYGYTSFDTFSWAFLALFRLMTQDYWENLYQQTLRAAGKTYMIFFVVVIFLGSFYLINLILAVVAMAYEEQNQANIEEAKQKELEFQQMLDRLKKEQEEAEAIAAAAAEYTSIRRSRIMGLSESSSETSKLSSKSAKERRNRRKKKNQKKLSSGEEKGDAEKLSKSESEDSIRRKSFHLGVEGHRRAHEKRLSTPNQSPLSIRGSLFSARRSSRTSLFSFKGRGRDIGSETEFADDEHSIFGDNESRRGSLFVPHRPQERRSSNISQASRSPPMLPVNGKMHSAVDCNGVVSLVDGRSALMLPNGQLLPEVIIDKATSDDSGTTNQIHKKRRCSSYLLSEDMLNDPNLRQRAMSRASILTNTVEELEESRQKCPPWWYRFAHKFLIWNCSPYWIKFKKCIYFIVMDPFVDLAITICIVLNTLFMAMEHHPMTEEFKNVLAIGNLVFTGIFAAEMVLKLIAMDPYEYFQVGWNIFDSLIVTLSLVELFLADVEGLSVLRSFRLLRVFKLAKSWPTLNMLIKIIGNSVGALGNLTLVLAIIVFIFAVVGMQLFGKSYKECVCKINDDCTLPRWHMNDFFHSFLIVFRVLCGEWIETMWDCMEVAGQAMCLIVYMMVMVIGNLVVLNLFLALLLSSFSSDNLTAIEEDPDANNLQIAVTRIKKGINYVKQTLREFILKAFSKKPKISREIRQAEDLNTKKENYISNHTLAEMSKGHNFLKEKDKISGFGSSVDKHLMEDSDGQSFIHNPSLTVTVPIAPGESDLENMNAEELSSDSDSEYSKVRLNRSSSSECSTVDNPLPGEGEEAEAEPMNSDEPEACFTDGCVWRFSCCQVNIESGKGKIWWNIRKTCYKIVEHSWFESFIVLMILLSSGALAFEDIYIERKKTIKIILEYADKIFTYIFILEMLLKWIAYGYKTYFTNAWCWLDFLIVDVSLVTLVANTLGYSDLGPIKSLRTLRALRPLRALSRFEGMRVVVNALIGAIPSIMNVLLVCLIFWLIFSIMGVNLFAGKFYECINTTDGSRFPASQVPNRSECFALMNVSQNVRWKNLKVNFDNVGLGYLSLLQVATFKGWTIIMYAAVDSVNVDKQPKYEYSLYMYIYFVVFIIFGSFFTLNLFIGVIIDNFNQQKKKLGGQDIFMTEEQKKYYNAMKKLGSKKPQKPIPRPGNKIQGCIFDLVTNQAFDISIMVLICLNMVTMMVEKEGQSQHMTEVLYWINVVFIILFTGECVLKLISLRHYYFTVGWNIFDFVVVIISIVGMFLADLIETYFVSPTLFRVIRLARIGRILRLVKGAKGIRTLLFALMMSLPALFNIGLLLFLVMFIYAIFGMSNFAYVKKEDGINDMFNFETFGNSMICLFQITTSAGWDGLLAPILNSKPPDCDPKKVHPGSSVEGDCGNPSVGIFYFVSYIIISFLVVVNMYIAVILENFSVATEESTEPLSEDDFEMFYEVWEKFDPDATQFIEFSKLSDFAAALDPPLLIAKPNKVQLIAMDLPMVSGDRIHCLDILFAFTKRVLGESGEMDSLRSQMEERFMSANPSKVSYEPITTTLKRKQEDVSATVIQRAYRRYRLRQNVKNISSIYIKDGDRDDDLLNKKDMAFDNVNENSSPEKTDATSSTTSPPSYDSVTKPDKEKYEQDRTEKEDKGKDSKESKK
Chain of Nav 1.5 (Q14524 whole entry): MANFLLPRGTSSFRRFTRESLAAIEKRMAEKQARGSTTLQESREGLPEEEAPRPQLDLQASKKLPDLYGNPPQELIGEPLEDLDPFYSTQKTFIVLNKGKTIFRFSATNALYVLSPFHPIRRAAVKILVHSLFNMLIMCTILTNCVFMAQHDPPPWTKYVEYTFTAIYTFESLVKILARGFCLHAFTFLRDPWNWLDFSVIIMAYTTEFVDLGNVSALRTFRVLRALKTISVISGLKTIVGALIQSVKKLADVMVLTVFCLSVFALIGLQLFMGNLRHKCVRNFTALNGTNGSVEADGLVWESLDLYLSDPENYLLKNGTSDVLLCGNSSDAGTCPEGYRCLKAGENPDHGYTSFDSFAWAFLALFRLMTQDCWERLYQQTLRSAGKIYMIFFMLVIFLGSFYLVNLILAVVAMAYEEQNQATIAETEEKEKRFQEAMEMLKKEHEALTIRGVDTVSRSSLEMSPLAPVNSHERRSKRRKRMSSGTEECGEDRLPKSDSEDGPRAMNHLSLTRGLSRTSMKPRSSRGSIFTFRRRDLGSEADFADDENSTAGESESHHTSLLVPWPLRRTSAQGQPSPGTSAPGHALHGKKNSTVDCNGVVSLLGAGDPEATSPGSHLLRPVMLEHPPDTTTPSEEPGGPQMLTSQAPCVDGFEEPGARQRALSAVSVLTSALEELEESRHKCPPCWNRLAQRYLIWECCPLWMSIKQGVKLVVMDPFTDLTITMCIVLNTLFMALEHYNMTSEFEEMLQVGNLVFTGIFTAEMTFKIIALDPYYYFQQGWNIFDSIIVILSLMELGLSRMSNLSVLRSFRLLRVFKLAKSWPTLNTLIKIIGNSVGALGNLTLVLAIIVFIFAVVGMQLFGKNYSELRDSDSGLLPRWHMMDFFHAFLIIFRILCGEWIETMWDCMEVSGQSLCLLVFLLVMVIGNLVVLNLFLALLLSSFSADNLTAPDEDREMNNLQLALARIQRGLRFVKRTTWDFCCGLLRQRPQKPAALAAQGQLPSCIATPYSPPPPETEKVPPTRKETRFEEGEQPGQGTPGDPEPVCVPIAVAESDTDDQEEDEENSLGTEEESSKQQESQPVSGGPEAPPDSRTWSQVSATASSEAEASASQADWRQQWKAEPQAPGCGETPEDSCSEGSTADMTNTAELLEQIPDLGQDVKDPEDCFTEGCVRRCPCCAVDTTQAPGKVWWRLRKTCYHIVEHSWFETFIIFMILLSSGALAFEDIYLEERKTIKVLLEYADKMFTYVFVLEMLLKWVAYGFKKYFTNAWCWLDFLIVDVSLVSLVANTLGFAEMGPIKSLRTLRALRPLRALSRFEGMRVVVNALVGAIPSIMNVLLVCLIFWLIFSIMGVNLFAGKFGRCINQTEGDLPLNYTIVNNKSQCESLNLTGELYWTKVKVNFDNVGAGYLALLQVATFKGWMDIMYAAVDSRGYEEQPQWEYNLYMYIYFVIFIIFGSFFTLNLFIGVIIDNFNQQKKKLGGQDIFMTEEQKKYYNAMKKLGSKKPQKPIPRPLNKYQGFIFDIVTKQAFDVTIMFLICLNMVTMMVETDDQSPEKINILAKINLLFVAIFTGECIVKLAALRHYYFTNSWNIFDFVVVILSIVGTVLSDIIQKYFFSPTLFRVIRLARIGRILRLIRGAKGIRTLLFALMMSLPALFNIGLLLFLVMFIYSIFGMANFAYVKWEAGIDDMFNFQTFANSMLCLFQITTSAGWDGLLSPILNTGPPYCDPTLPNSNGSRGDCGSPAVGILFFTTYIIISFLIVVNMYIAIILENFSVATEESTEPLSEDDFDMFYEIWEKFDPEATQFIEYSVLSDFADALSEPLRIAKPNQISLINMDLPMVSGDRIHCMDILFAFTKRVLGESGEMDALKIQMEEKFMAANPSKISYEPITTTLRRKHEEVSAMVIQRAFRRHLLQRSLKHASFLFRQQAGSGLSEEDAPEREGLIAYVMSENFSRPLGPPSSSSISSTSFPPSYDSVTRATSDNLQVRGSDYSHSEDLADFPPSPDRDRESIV

With COc1cc(-c2cc(F)cc(F)c2)ccc1-c1nccc2cc(S(=O)(=O)Nc3ncco3)ccc12 [Example 137, 1-(3′,5′-difluoro-3-methoxy-4-biphenylyl)-N-1,3-oxazol-2-yl-6-isoquinolinesulfonamide] the IC50 ([1]; in-vitro PX data) was > 10000 nM and the IC50 ([2]; in-vitro PX data) was 360 nM.
For COc1cc(-c2ccc(C)c(Cl)c2)c(C#N)cc1-c1nccc2cc(S(=O)(=O)Nc3ccon3)ccc12 [Example 78, 1-(3′-chloro-2-cyano-5-methoxy-4′-methyl-4-biphenylyl)-N-3-isoxazolyl-6-isoquinolinesulfonamide], the IC50 ([1]; PatchXpress (PX), in vitro) was > 10000 nM and the IC50 ([2]; PatchXpress (PX), in vitro) was 33 nM.
In the case of “1-(5-cyano-4-(5-fluoro-2-methoxy-3-pyridinyl)-2-methoxyphenyl)-N-1,3,4-thiadiazol-2-yl-6-isoquinolinesulfonamide [Example 223]”, the IC50 ([1]; in-vitro PX) is reported as > 10000 nM and the IC50 ([2]; in-vitro PX) is reported as 72.3 nM.
In the case of COc1cc(-c2cccc(C(F)(F)F)c2)c(F)cc1-c1nn(C)c(=O)c2cc(S(=O)(=O)Nc3nncs3)ccc12 [Example 234, 1-(2-fluoro-5-methoxy-3′-(trifluoromethyl)-4-biphenylyl)-3-methyl-4-oxo-N-1,3,4-thiadiazol-2-yl-3,4-dihydro-6-phthalazinesulfonamide], the IC50 ([1]; in-vitro PX) is reported as > 10000 nM.
With COc1cc(-c2ccc(C)c(F)c2)c(C#N)cc1-c1nccc2cc(S(=O)(=O)Nc3ccon3)ccc12 [Example 81, 1-(2-cyano-3′-fluoro-5-methoxy-4′-methyl-4-biphenylyl)-N-3-isoxazolyl-6-isoquinolinesulfonamide] the IC50 ([1]; PatchXpress (PX), in vitro) was > 10000 nM.
With COc1cc(-c2cccc(Cl)c2)c(F)cc1-c1nccc2cc(S(=O)(=O)Nc3ccon3)ccc12 [Example 116, 1-(3′-chloro-2-fluoro-5-methoxy-4-biphenylyl)-N-3-isoxazolyl-6-isoquinolinesulfonamide] the IC50 ([1]; in-vitro PX data) was > 10000 nM.
For COc1cc(-c2ccc(Cl)c(C)c2)c(C#N)cc1-c1nccc2cc(S(=O)(=O)Nc3nncs3)ccc12 [Example 228, 1-(4′-chloro-2-cyano-5-methoxy-3′-methyl-4-biphenylyl)-N-1,3,4-thiadiazol-2-yl-6-isoquinolinesulfonamide], the IC50 ([1]; in-vitro PX) was > 10000 nM.
For COc1cc(-c2ccc(Cl)c(F)c2)c(C#N)cc1-c1nccc2cc(S(=O)(=O)Nc3nncs3)ccc12 [Example 224, 1-(4′-chloro-2-cyano-3′-fluoro-5-methoxy-4-biphenylyl)-N-1,3,4-thiadiazol-2-yl-6-isoquinolinesulfonamide], the IC50 ([1]; in-vitro PX) was > 10000 nM.
COc1cc(-c2cc(F)cnc2OC)c(C#N)cc1-c1nccc2cc(S(=O)(=O)Nc3ccon3)ccc12 [Example 83, 1-(5-cyano-4-(5-fluoro-2-methoxy-3-pyridinyl)-2-methoxyphenyl)-N-3-isoxazolyl-6-isoquinolinesulfonamide] was tested, and the IC50 ([1]; PatchXpress (PX), in vitro) was > 10000 nM.
For COc1cc(-c2ccc(F)c(C)n2)c(C)cc1-c1ncnc2cc(S(=O)(=O)Nc3ccon3)ccc12 [Example 33], the IC50 ([1]; in-vitro PX (PatchXpress) data) was > 10000 nM.
Compound COc1cc(-c2cc(Cl)cc(Cl)c2)c(F)cc1-c1ncnc2cc(S(=O)(=O)Nc3ccon3)ccc12 [Example 300, 4-(3′,5′-dichloro-2-fluoro-5-methoxy-4-biphenylyl)-N-3-isoxazolyl-7-quinazolinesulfonamide] has an IC50 [3, 4] of 26 nM.
COc1cc(-c2cccc(F)c2)c(Cl)cc1-c1ncnc2cc(S(=O)(=O)Nc3ccon3)ccc12 [Example 227, 4-(2-chloro-3′-fluoro-5-methoxy-4-biphenylyl)-N-3-isoxazolyl-7-quinazolinesulfonamide] was tested, and the IC50 ([1]; in-vitro PX) was > 10000 nM.
For COc1ccc(F)cc1-c1cc(OC)c(-c2ncnc3cc(S(=O)(=O)Nc4ccon4)ccc23)cc1C [Example 191, 4-(5′-fluoro-2′,5-dimethoxy-2-methyl-4-biphenylyl)-N-3-isoxazolyl-7-quinazolinesulfonamide], the IC50 ([1]; in-vitro PX (PatchXpress) data) was > 10000 nM.
For COc1cc(-c2cc(C)cc(F)c2)c(C#N)cc1-c1nccc2cc(S(=O)(=O)Nc3ccncn3)ccc12 [Example 164, 1-(2-cyano-3′-fluoro-5-methoxy-5′-methyl-4-biphenylyl)-N-4-pyrimidinyl-6-isoquinolinesulfonamide], the IC50 ([1]; in-vitro Nav 1.5 PX data) was > 30000 nM.
With COc1cc(F)cc(-c2cc(OC)c(-c3ncnc4cc(S(=O)(=O)Nc5ccon5)ccc34)cc2C)c1 [Example 560, 4-(3′-fluoro-5,5′-dimethoxy-2-methyl-4-biphenylyl)-N-3-isoxazolyl-7-quinazolinesulfonamide] the IC50 [3, 5] was 35 nM.
Work on COc1cc(-c2cccc(C)c2)c(C)cc1-c1ncnc2cc(S(=O)(=O)Nc3ccon3)ccc12 [Example 263, N-3-isoxazolyl-4-(5-methoxy-2,3′-dimethyl-4-biphenylyl)-7-quinazolinesulfonamide] yielded an IC50 ([3]; PatchXpress (PX)) of 102 nM.
With COc1cc(-c2cccc(F)c2)c(Cl)cc1-c1c(C)ncc2cc(S(=O)(=O)Nc3ccon3)ccc12 (atropisomer, axis not shown; (P)) [Example 318, (P)-4-(2-chloro-3′-fluoro-5-methoxy-4-biphenylyl)-N-3-isoxazolyl-3-methyl-7-isoquinolinesulfonamide] the IC50 [3, 5] was 1390 nM.
COc1cc(C(F)(F)F)c(Cl)cc1-c1ncnc2cc(S(=O)(=O)Nc3ccon3)ccc12 [Example 59, 4-(5-CHLORO-2-METHOXY-4-(TRIFLUOROMETHYL)PHENYL)-N-(ISOXAZOL-3-YL)QUINAZOLINE-7-SULFONAMIDE] showed an IC50 [3] of 182 nM.
Compound COc1cc(-c2cccc(F)c2)c(Cl)cc1-c1cn(C)c(=O)c2cc(S(=O)(=O)Nc3ccon3)ccc12 [Example 328, 4-(2-chloro-3′-fluoro-5-methoxy-[1,1′-biphenyl]-4-yl)-N-(isoxazol-3-yl)-2-methyl-1-oxo-1,2-dihydroisoquinoline-7-sulfonamide trifluoromethanesulfonate] has an IC50 [3, 5] of 68 nM.
COc1cc(-c2ccc(F)c(Cl)c2)c(C)cc1-c1ncnc2cc(S(=O)(=O)Nc3ncccn3)ccc12 [Example 345, 4-(3′-chloro-4′-fluoro-5-methoxy-2-methyl-[1,1′-biphenyl]-4-yl)-N-(pyrimidin-2-yl)quinazoline-7-sulfonamide] was tested, and the IC50 [3, 5] was 78 nM.
Work on COc1cc(-c2cccc(Cl)c2)c(Cl)cc1-c1ncnc2cc(S(=O)(=O)Nc3ncccn3)ccc12 [Example 437, 4-(2,3′-DICHLORO-5-METHOXY-[1,1′-BIPHENYL]-4-YL)-N-(PYRIMIDIN-2-YL)QUINAZOLINE-7-SULFONAMIDE] yielded an IC50 [3, 5] of 72 nM.
Work on COc1cc(-c2ccc(F)c(C)c2)c(C)cc1-c1ncnc2cc(S(=O)(=O)Nc3ccon3)ccc12 [Example 261, 4-(4′-fluoro-5-methoxy-2,3′-dimethyl-4-biphenylyl)-N-3-isoxazolyl-7-quinazolinesulfonamide] yielded an IC50 ([3]; PatchXpress (PX)) of 38.1 nM.
COc1cc(-c2ccc(F)c(Cl)c2)c(C#N)cc1-c1nccc2cc(S(=O)(=O)Nc3nncs3)ccc12 [Example 221, 1-(3′-chloro-2-cyano-4′-fluoro-5-methoxy-4-biphenylyl)-N-1,3,4-thiadiazol-2-yl-6-isoquinolinesulfonamide] was tested, and the IC50 ([1]; in-vitro PX) was > 10000 nM.
COc1cc(-c2ccc(Cl)c(C)c2)c(F)cc1-c1[nH]c(=O)cc2cc(S(=O)(=O)Nc3ccon3)ccc12 [Example 548, 1-(4′-chloro-2-fluoro-5-methoxy-3′-methyl-4-biphenylyl)-N-3-isoxazolyl-3-oxo-2,3-dihydro-6-isoquinolinesulfonamide] gave an IC50 [3, 5] of 16 nM.
For COc1cc(F)c(-c2cncc(F)c2)cc1-c1nccc2cc(S(=O)(=O)Nc3ccon3)ccc12 [Example 392, 1-(4-fluoro-5-(5-fluoropyridin-3-yl)-2-methoxyphenyl)-N-(isoxazol-3-yl)isoquinoline-6-sulfonamide 2,2,2-trifluoroacetate], the IC50 [3, 5] was 491 nM.
COc1cc(-c2ccc(F)c(C)c2)c(C)cc1-c1nccc2cc(S(=O)(=O)Nc3ccon3)ccc12 [Example 274, 1-(4′-fluoro-5-methoxy-2,3′-dimethyl-4-biphenylyl)-N-3-isoxazolyl-6-isoquinolinesulfonamide] showed an IC50 ([3]; PatchXpress (PX)) of 63.2 nM.
Compound COc1cc(-c2cccc(F)c2)c(Cl)cc1-c1nccc2cc(S(=O)(=O)Nc3ncco3)ccc12 [Example 257, 1-(2-chloro-3′-fluoro-5-methoxy-4-biphenylyl)-N-1,3-oxazol-2-yl-6-isoquinolinesulfonamide] has an IC50 ([3]; PatchXpress (PX)) of 222 nM.
Compound COc1cc(C(F)(F)F)ccc1C1c2ccc(S(=O)(=O)Nc3ncns3)cc2CCN1C(C)=O (stereo not drawn) [Example 51, 2-ACETYL-1-(2-METHOXY-4-(TRIFLUOROMETHYL)PHENYL)-N-(1,2,4-THIADIAZOL-5-YL)-1,2,3,4-TETRAHYDROISOQUINOLINE-6-SULFONAMIDE] has an IC50 [3] of 225 nM.
COc1cc(-c2cccc(F)c2)c(Cl)cc1-c1cn(C)c2cc(S(=O)(=O)Nc3ccon3)ccc12 [Example 57, 3-(2-CHLORO-3′-FLUORO-5-METHOXY-[1,1′-BIPHENYL]-4-YL)-N-(ISOXAZOL-3-YL)-1-METHYL-1H-INDOLE-6-SULFONAMIDE] was tested, and the IC50 [3, 4] was 12900 nM.
For COc1cc(-c2ccc(C)c(Cl)c2F)c(F)cc1-c1ncnc2cc(S(=O)(=O)Nc3ccon3)ccc12 [Example 296, 4-(3′-chloro-2,2′-difluoro-5-methoxy-4′-methyl-4-biphenylyl)-N-3-isoxazolyl-7-quinazolinesulfonamide], the IC50 [3, 4] was 105 nM.
Compound COc1cc(Cl)c(C)cc1-c1nccc2cc(S(=O)(=O)Nc3ccon3)ccc12 [Example 248, 1-(4-chloro-2-methoxy-5-methylphenyl)-N-3-isoxazolyl-6-isoquinolinesulfonamide] has an IC50 ([3]; PatchXpress (PX)) of 187 nM.
In the case of COc1cc(-c2cc(C)c(C)cc2C)c(C#N)cc1-c1nccc2cc(S(=O)(=O)Nc3ccncn3)ccc12 [Example 165, 1-(2-cyano-5-methoxy-2′,4′,5′-trimethyl-4-biphenylyl)-N-4-pyrimidinyl-6-isoquinolinesulfonamide], the IC50 ([1]; in-vitro Nav 1.5 PX data) is reported as > 30000 nM.
Work on COc1cc(-c2cccc(C(F)(F)F)c2)c(C#N)cc1-c1nccc2cc(S(=O)(=O)Nc3ncccn3)ccc12 [Example 373, 1-(2-cyano-5-methoxy-3′-(trifluoromethyl)-[1,1′-biphenyl]-4-yl)-N-(pyrimidin-2-yl)isoquinoline-6-sulfonamide] yielded an IC50 [3] of 57 nM.
